{"source": "the supplement of paper PMC10307832", "experiment_in_all_cases": "relative viability (nuclei count vs DMSO), 5 days (fraction); higher = more cells survive", "key": {"EPLC-272H": {"system": "EPLC-272H", "method_in_brief": "(§1)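 Lung cancer cell lines in 1536-well plates got either a single drug or a fixed anchor-drug dose together with five library-drug doses (not always all listed) in √10 steps, by pin tool, on the day after seeding. Nuclei were counted after 5 days, and relative viability is the treated-to-vehicle ratio of nuclei counts. Values are medians of duplicate plates.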"}, "HARA": {"system": "HARA", "method_in_brief": "as §1"}, "NCI-H1915": {"system": "NCI-H1915", "method_in_brief": "as §1"}, "ABC-1": {"system": "ABC-1", "method_in_brief": "as §1"}, "NCI-H1355": {"system": "NCI-H1355", "method_in_brief": "as §1"}, "COR-L23": {"system": "COR-L23", "method_in_brief": "as §1"}, "PC-14": {"system": "PC-14", "method_in_brief": "as §1"}, "UMC-11": {"system": "UMC-11", "method_in_brief": "as §1"}, "LU99A": {"system": "LU99A", "method_in_brief": "as §1"}, "NCI-H1651": {"system": "NCI-H1651", "method_in_brief": "as §1"}, "NCI-H358": {"system": "NCI-H358", "method_in_brief": "as §1"}, "NCI-H2347": {"system": "NCI-H2347", "method_in_brief": "as §1"}, "HCC-44": {"system": "HCC-44", "method_in_brief": "as §1"}, "LC-2-ad": {"system": "LC-2-ad", "method_in_brief": "as §1"}, "HOP-62": {"system": "HOP-62", "method_in_brief": "as §1"}, "HCC-15": {"system": "HCC-15", "method_in_brief": "as §1"}, "NCI-H1993": {"system": "NCI-H1993", "method_in_brief": "as §1"}, "NCI-H2023": {"system": "NCI-H2023", "method_in_brief": "as §1"}, "NCI-H2085": {"system": "NCI-H2085", "method_in_brief": "as §1"}, "SW 1573": {"system": "SW 1573", "method_in_brief": "as §1"}, "NCI-H650": {"system": "NCI-H650", "method_in_brief": "as §1"}, "NCI-H838": {"system": "NCI-H838", "method_in_brief": "as §1"}, "NCI-H2126": {"system": "NCI-H2126", "method_in_brief": "as §1"}}, "data": [{"smiles": "COc1nc(C)cnc1NS(=O)(=O)c1cccnc1-c1ccc(-c2nnco2)cc1", "note": "[Zibotentan] + COc1cccc2cc(-c3nc([C@H]4CC[C@H](C(=O)O)CC4)n4ncnc(N)c34)[nH]c12 [OSI-027] (partner 0.5 µM)", "values": [{"measurement": "relative viability", "setting": "EPLC-272H; first compound 0.08 µM", "result": 0.328}, {"measurement": "relative viability", "setting": "EPLC-272H; first compound 0.253 µM", "result": 0.287}, {"measurement": "relative viability", "setting": "EPLC-272H; first compound 0.8 µM", "result": 0.269}, {"measurement": "relative viability", "setting": "EPLC-272H; first compound 2.53 µM", "result": 0.301}, {"measurement": "relative viability", "setting": "HARA; first compound 0.08 µM", "result": 0.42}, {"measurement": "relative viability", "setting": "HARA; first compound 0.253 µM", "result": 0.462}, {"measurement": "relative viability", "setting": "HARA; first compound 0.8 µM", "result": 0.437}, {"measurement": "relative viability", "setting": "HARA; first compound 2.53 µM", "result": 0.715}, {"measurement": "relative viability", "setting": "NCI-H1915; first compound 0.08 µM", "result": 0.637}, {"measurement": "relative viability", "setting": "NCI-H1915; first compound 0.253 µM", "result": 0.627}, {"measurement": "relative viability", "setting": "NCI-H1915; first compound 0.8 µM", "result": 0.603}, {"measurement": "relative viability", "setting": "NCI-H1915; first compound 2.53 µM", "result": 0.649}, {"measurement": "relative viability", "setting": "ABC-1; first compound 0.08 µM", "result": 0.608}, {"measurement": "relative viability", "setting": "ABC-1; first compound 0.253 µM", "result": 0.542}, {"measurement": "relative viability", "setting": "ABC-1; first compound 0.8 µM", "result": 0.53}, {"measurement": "relative viability", "setting": "ABC-1; first compound 2.53 µM", "result": 0.527}, {"measurement": "relative viability", "setting": "NCI-H1355; first compound 0.08 µM", "result": 0.375}, {"measurement": "relative viability", "setting": "NCI-H1355; first compound 0.253 µM", "result": 0.377}, {"measurement": "relative viability", "setting": "NCI-H1355; first compound 0.8 µM", "result": 0.458}, {"measurement": "relative viability", "setting": "NCI-H1355; first compound 2.53 µM", "result": 0.492}, {"measurement": "relative viability", "setting": "COR-L23; first compound 0.08 µM", "result": 0.713}, {"measurement": "relative viability", "setting": "COR-L23; first compound 0.253 µM", "result": 0.651}, {"measurement": "relative viability", "setting": "COR-L23; first compound 0.8 µM", "result": 0.789}, {"measurement": "relative viability", "setting": "COR-L23; first compound 2.53 µM", "result": 0.798}, {"measurement": "relative viability", "setting": "PC-14; first compound 0.08 µM", "result": 0.926}, {"measurement": "relative viability", "setting": "PC-14; first compound 0.253 µM", "result": 0.651}, {"measurement": "relative viability", "setting": "PC-14; first compound 0.8 µM", "result": 1.06}, {"measurement": "relative viability", "setting": "PC-14; first compound 2.53 µM", "result": 0.929}, {"measurement": "relative viability", "setting": "UMC-11; first compound 0.08 µM", "result": 0.562}, {"measurement": "relative viability", "setting": "UMC-11; first compound 0.253 µM", "result": 0.462}, {"measurement": "relative viability", "setting": "UMC-11; first compound 0.8 µM", "result": 0.467}, {"measurement": "relative viability", "setting": "UMC-11; first compound 2.53 µM", "result": 0.514}, {"measurement": "relative viability", "setting": "LU99A; first compound 0.08 µM", "result": 0.32}, {"measurement": "relative viability", "setting": "LU99A; first compound 0.253 µM", "result": 0.302}, {"measurement": "relative viability", "setting": "LU99A; first compound 0.8 µM", "result": 0.274}, {"measurement": "relative viability", "setting": "LU99A; first compound 2.53 µM", "result": 0.338}, {"measurement": "relative viability", "setting": "NCI-H1651; first compound 0.08 µM", "result": 0.694}, {"measurement": "relative viability", "setting": "NCI-H1651; first compound 0.253 µM", "result": 0.641}, {"measurement": "relative viability", "setting": "NCI-H1651; first compound 0.8 µM", "result": 0.701}, {"measurement": "relative viability", "setting": "NCI-H1651; first compound 2.53 µM", "result": 0.72}, {"measurement": "relative viability", "setting": "NCI-H358; first compound 0.08 µM", "result": 0.833}, {"measurement": "relative viability", "setting": "NCI-H358; first compound 0.253 µM", "result": 0.531}, {"measurement": "relative viability", "setting": "NCI-H358; first compound 0.8 µM", "result": 0.725}, {"measurement": "relative viability", "setting": "NCI-H358; first compound 2.53 µM", "result": 0.824}, {"measurement": "relative viability", "setting": "NCI-H2347; first compound 0.253 µM", "result": 0.384}, {"measurement": "relative viability", "setting": "NCI-H2347; first compound 0.8 µM", "result": 0.49}, {"measurement": "relative viability", "setting": "NCI-H2347; first compound 2.53 µM", "result": 0.259}, {"measurement": "relative viability", "setting": "HCC-44; first compound 0.08 µM", "result": 0.585}, {"measurement": "relative viability", "setting": "HCC-44; first compound 0.8 µM", "result": 0.621}, {"measurement": "relative viability", "setting": "HCC-44; first compound 2.53 µM", "result": 0.558}, {"measurement": "relative viability", "setting": "LC-2-ad; first compound 0.08 µM", "result": 0.817}, {"measurement": "relative viability", "setting": "LC-2-ad; first compound 0.8 µM", "result": 1.13}, {"measurement": "relative viability", "setting": "LC-2-ad; first compound 2.53 µM", "result": 0.79}, {"measurement": "relative viability", "setting": "HOP-62; first compound 0.08 µM", "result": 0.903}, {"measurement": "relative viability", "setting": "HOP-62; first compound 0.253 µM", "result": 0.871}, {"measurement": "relative viability", "setting": "HOP-62; first compound 0.8 µM", "result": 0.878}, {"measurement": "relative viability", "setting": "HOP-62; first compound 2.53 µM", "result": 0.931}, {"measurement": "relative viability", "setting": "HCC-15; first compound 0.08 µM", "result": 0.644}, {"measurement": "relative viability", "setting": "HCC-15; first compound 0.8 µM", "result": 0.759}, {"measurement": "relative viability", "setting": "HCC-15; first compound 2.53 µM", "result": 0.781}, {"measurement": "relative viability", "setting": "NCI-H1993; first compound 0.08 µM", "result": 0.522}, {"measurement": "relative viability", "setting": "NCI-H1993; first compound 0.253 µM", "result": 0.494}, {"measurement": "relative viability", "setting": "NCI-H1993; first compound 0.8 µM", "result": 0.468}, {"measurement": "relative viability", "setting": "NCI-H1993; first compound 2.53 µM", "result": 0.525}, {"measurement": "relative viability", "setting": "NCI-H2023; first compound 0.08 µM", "result": 0.475}, {"measurement": "relative viability", "setting": "NCI-H2023; first compound 0.253 µM", "result": 0.228}, {"measurement": "relative viability", "setting": "NCI-H2023; first compound 0.8 µM", "result": 0.371}, {"measurement": "relative viability", "setting": "NCI-H2023; first compound 2.53 µM", "result": 0.476}, {"measurement": "relative viability", "setting": "NCI-H2085; first compound 0.08 µM", "result": 0.78}, {"measurement": "relative viability", "setting": "NCI-H2085; first compound 0.253 µM", "result": 0.727}, {"measurement": "relative viability", "setting": "NCI-H2085; first compound 0.8 µM", "result": 0.442}, {"measurement": "relative viability", "setting": "NCI-H2085; first compound 2.53 µM", "result": 0.832}, {"measurement": "relative viability", "setting": "SW 1573; first compound 0.08 µM", "result": 0.651}, {"measurement": "relative viability", "setting": "SW 1573; first compound 0.8 µM", "result": 0.699}, {"measurement": "relative viability", "setting": "SW 1573; first compound 2.53 µM", "result": 0.659}, {"measurement": "relative viability", "setting": "NCI-H650; first compound 0.08 µM", "result": 0.54}, {"measurement": "relative viability", "setting": "NCI-H650; first compound 0.253 µM", "result": 0.509}, {"measurement": "relative viability", "setting": "NCI-H650; first compound 0.8 µM", "result": 0.566}, {"measurement": "relative viability", "setting": "NCI-H650; first compound 2.53 µM", "result": 0.649}, {"measurement": "relative viability", "setting": "NCI-H838; first compound 0.08 µM", "result": 0.349}, {"measurement": "relative viability", "setting": "NCI-H838; first compound 0.253 µM", "result": 0.366}, {"measurement": "relative viability", "setting": "NCI-H838; first compound 0.8 µM", "result": 0.393}, {"measurement": "relative viability", "setting": "NCI-H838; first compound 2.53 µM", "result": 0.389}, {"measurement": "relative viability", "setting": "NCI-H2126; first compound 0.08 µM", "result": 0.769}, {"measurement": "relative viability", "setting": "NCI-H2126; first compound 0.253 µM", "result": 0.718}, {"measurement": "relative viability", "setting": "NCI-H2126; first compound 0.8 µM", "result": 0.609}, {"measurement": "relative viability", "setting": "NCI-H2126; first compound 2.53 µM", "result": 0.684}]}]}
